Source: PMC10675597, “Design, Synthesis, and Antisickling Investigation of a Thiazolidine Prodrug of TD-7 That Prolongs the Duration of Action of Antisickling Aromatic Aldehyde” (Pharmaceutics, 2023)

What was measured:
[1] = In-vitro stability in different pH buffers (aldehyde peak absorbance at 349 nm); assay type: physicochemical; settings: for Stability (absorbance of aldehyde peak at 349 nm): 1 mM, 37 °C
Method: The stability of Pro-7 and the control TD-7 in different pH buffers (PBS buffer at pH 7.4, KCl·HCl buffer at pH 2.0, and Tris buffer at pH 8.0) was evaluated over time as previously reported. The ionic strength of all buffers was kept constant at 150 mM. A 200 mM stock solution of each compound was prepared using anhydrous DMSO. 1 mM solutions of each of the test compounds TD-7 and Pro-7 were prepared in duplicate for each of the three different pH buffers. […]
An in-vitro time-dependent (1–96 h) stability study of Pro-7 was conducted to inform the formulation of the prodrug. The study was conducted at three different pHs: 2.0, 7.4 and 8.0, which mimic stomach, blood and intestinal pH conditions, respectively. The presence of TD-7 or the rate of appearance of TD-7 upon dissociation of Pro-7 was monitored at 349 nm spectrophotometrically.

[2] = target: T1, Hb in human normal whole blood (Homo sapiens, UniProt P69905); assay: In-vitro time-dependent Hb modification (Hb adduct formation), cation-exchange HPLC; assay type: cell-based; settings: 2 mM, normal whole blood 30% hematocrit
T1 construct: normal whole blood (AA) was collected from adult donors; from tissue; host or cells: normal (AA) human whole blood from adult donors, 30% hematocrit
Method: Pro-7 and the control TD-7 were used to conduct time-dependent Hb modification (Hb adduct formation) studies using normal whole blood as previously reported. A 200 mM stock solution of each compound was made with DMSO. In a 96-well 1.2 mL polypropylene deep-well plate (Thermo Scientific, Hampshire, UK), 2.0 mM concentration of each compound was added to 600 μL of whole blood (30% hematocrit), which was then incubated at 37 °C for 24 h with shaking (at 140 rpm). A control sample was supplemented only with an equivalent volume of DMSO. At different time points (0–24 h), 50 μL aliquots of this mixture were withdrawn from each well using a multichannel pipette and added to respective tubes containing 50 μL of sodium cyanoborohydride (NaBH3CN) and sodium borohydride (NaBH4) mixture (1:1 v/v 50 mM stock) to terminate the Schiff-base reaction, fix the Schiff-base Hb adducts and reduce the free reactive aldehyde. After mixing, the tubes were stored immediately at −80 °C until ready for analysis using cation-exchange HPLC (Hitachi D-7000 Series, Hitachi Instruments, Inc. San Jose, CA, USA) for Hb-compound adduct formation. The observed Hb adducts in %Hb modification were plotted as a function of time (h).
(§1) Human normal whole blood was used to assess the degree of Hb modification and Hb oxygen affinity (P50 shift), while sickle blood was used to investigate RBC sickling inhibition. Pro-7 and the positive control TD-7 were incubated with normal whole blood suspensions. […] For the sickling inhibition study, Pro-7 and the positive control TD-7 were incubated with SS blood suspensions under hypoxic conditions (2.5% O2/97.5% N2), and aliquot blood samples were drawn at three time points (1, 3 and 6 h) and used for assessing RBC morphology. The results summarized in Table 1 and Figure 4A–C show time-dependent effects for all three pharmacodynamic activities. […] Even at the end of the 24-h experiment, Pro-7 activity was still increasing.

[3] = target: T1, Hb in human normal whole blood; assay: In-vitro time-dependent oxygen equilibrium study (P50 shift); assay type: cell-based; settings: 2 mM, normal whole blood 30% hematocrit
Method: An oxygen equilibrium curve study was conducted in a time-dependent manner to determine the effect and duration of Pro-7 on Hb affinity for oxygen (P50 shift) following standard procedure. Pro-7, along with the controls TD-7 and DMSO were used for the studies with normal whole blood sample (30% hematocrit). Each compound was incubated with the blood at a final concentration of 2 mM, and aliquot samples were taken at 1, 3, 6, 12 and 24 h and further incubated in IL 237 tonometer (Instrumentation Laboratories, Inc., Lexington, MA, USA) for 10 min at 37 °C, and allowed to equilibrate at oxygen tensions 6, 20, and 40 mmHg. The samples were then aspirated into a Radiometer ABL 800 Automated Blood Gas Analyzer (Copenhagen, Denmark ) to determine the pH, partial pressure of CO2 (pCO2), partial pressure of oxygen (pO2), and Hb oxygen saturation values (SO2). The measured values of pO2 (mmHg) and SO2 at each pO2 value were then subjected to a non-linear regression analysis using the program Scientist (Micromath, Salt Lake City, UT, USA) to estimate P50 as a measure of Hb oxygen affinity as previously reported.
as §1

[4] = test system: SS cells (homozygous sickle cell blood); assay: In-vitro time-dependent RBC sickling inhibition under hypoxia; assay type: cell-based, human; settings: 2 mM, SS cells 20% hematocrit, hypoxia (4% oxygen/96% nitrogen)
Method: Red blood cell sickling inhibition studies with Pro-7 and the control TD-7 was conducted using previously reported procedure. Blood suspensions from subjects with homozygous SCD (hematocrit 20%) were incubated under air in the absence or presence of test compounds at 37 °C for 1 h to ensure that binding has attained equilibrium. […] Aliquot samples were fixed with 2% glutaraldehyde solution without exposure to air, and then subjected to microscopic morphological analysis.
Human normal whole blood was used to assess the degree of Hb modification and Hb oxygen affinity (P50 shift), while sickle blood was used to investigate RBC sickling inhibition. […] The results summarized in Table 1 and Figure 4A–C show time-dependent effects for all three pharmacodynamic activities. […] Even at the end of the 24-h experiment, Pro-7 activity was still increasing.

T1 sequence (P69905 2-142 limits assumed): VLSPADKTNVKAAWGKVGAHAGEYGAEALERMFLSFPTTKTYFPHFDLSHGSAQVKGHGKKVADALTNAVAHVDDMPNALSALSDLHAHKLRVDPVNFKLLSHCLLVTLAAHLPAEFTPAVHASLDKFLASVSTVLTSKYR
T1 sequence (P68871 2-147 partner limits assumed): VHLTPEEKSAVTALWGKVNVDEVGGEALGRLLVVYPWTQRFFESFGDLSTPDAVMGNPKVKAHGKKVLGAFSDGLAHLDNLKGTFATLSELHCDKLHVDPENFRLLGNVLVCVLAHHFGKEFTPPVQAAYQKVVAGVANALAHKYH

In the case of “1-(2-(3-((6-(hydroxymethyl)pyridin-2-yl)methoxy)-5 methoxyphenyl)thiazolidin-4-yl)propan-1-one [Pro-7]”, the “degradation to release TD-7 (in words)” value ([1]; pH 2.0) is reported as “very fast degradation”, the “time for formation of TD-7 from Pro-7 to be almost completed” value ([1]; pH 2.0) is reported as no more than 1 h and the “Stability (absorbance of aldehyde peak at 349 nm)” value (from here on “Stability”) ([1]; pH 2.0, 0 hr) is reported as 1.22 ± 0.4. For the same substance, the “Stability” value ([1]; pH 2.0, 1 hr) was 3.16 ± 0.2, the “Stability” value ([1]; pH 2.0, 2 hr) was 3.17 ± 0.09 and the “Stability” value ([1]; pH 2.0, 3 hr) was 3.36 ± 0.03. For the same substance, the “Stability” value ([1]; pH 2.0, 6 hr) was 3.27 ± 0.02, the “Stability” value ([1]; pH 2.0, 24 hr) was 3.05 ± 0.00 and the “Stability” value ([1]; pH 7.4, 0 hr) was 0.14 ± 0.01. The “Stability” value ([1]; pH 7.4, 1 hr) was 0.16 ± 0.00, the “Stability” value ([1]; pH 7.4, 2 hr) was 0.17 ± 0.00 and the “Stability” value ([1]; pH 7.4, 3 hr) was 0.09 ± 0.09. The “Stability” value ([1]; pH 7.4, 6 hr) was 0.22 ± 0.00, the “Stability” value ([1]; pH 7.4, 24 hr) was 0.49 ± 0.00 and the “Stability” value ([1]; pH 7.4, 28 hr) was 0.55 ± 0.00. For the same substance, the “Stability” value ([1]; pH 7.4, 48 hr) was 0.98 ± 0.02, the “Stability” value ([1]; pH 7.4, 56 hr) was 1.10 ± 0.03 and the “Stability” value ([1]; pH 7.4, 72 hr) was 1.77 ± 0.07. For the same substance, the “Stability” value ([1]; pH 7.4, 96 hr) was 2.59 ± 0.03, the “Stability” value ([1]; pH 8.0, 0 hr) was 0.14 ± 0.00 and the “Stability” value ([1]; pH 8.0, 1 hr) was 0.12 ± 0.00. The “Stability” value ([1]; pH 8.0, 2 hr) was 0.15 ± 0.00, the “Stability” value ([1]; pH 8.0, 3 hr) was 0.17 ± 0.00 and the “Stability” value ([1]; pH 8.0, 6 hr) was 0.24 ± 0.01. The “Stability” value ([1]; pH 8.0, 24 hr) was 0.64 ± 0.16, the “Stability” value ([1]; pH 8.0, 28 hr) was 1.00 ± 0.05 and the “Stability” value ([1]; pH 8.0, 48 hr) was 1.33 ± 0.32. For the same substance, the “Stability” value ([1]; pH 8.0, 72 hr) was 1.89 ± 0.04, the “Stability” value ([1]; pH 8.0, 96 hr) was 1.86 ± 0.01 and the “degradation to release TD-7 (in words)” value ([1]; pHs 7.4 and 8.0) was “slow degradation”. For the same substance, the “time for TD-7 to be detected in a significant amount” value ([1]; pHs 7.4 and 8.0) was ~ 6 h, the “time to full dissociation into TD-7” value ([1]; pHs 7.4 and 8.0) was “approximately four days” and the “%Hb Modification (Hb Adduct)” value ([2]; 0 h) was 0.00 ± 0.00%. For the same substance, the “%Hb Modification (Hb Adduct)” value ([2]; 1 h) was 7.10 ± 4.40%, the “%Hb Modification (Hb Adduct)” value ([2]; 2 h) was 14.30 ± 6.80% and the “%Hb Modification (Hb Adduct)” value ([2]; 4 h) was 17.50 ± 7.10%. For the same substance, the “%Hb Modification (Hb Adduct)” value ([2]; 8 h) was 29.70 ± 10.9%, the “%Hb Modification (Hb Adduct)” value ([2]; 12 h) was 41.20 ± 15.8% and the “%Hb Modification (Hb Adduct)” value ([2]; 24 h) was 54.80 ± 21.8%. For the same substance, the “%Hb O2 Affinity (P50 Shift)” value ([3]; 1 h) was 6.48 ± 1.54%, the “%Hb O2 Affinity (P50 Shift)” value ([3]; 3 h) was 13.57 ± 5.53% and the “%Hb O2 Affinity (P50 Shift)” value ([3]; 6 h) was 21.64 ± 10.93%. The “%Hb O2 Affinity (P50 Shift)” value ([3]; 12 h) was 41.04 ± 10.93%, the “%Hb O2 Affinity (P50 Shift)” value ([3]; 24 h) was 43.87 ± 3.22% and the “%Sickling Inhibition” value ([4]; 1 h) was 12.53%. For the same substance, the “%Sickling Inhibition” value ([4]; 3 h) was 40.76% and the “%Sickling Inhibition” value ([4]; 6 h) was 52.04%.
